Measurements from US7070983B2, “Mutant Pseudomonas putida strains and methods of use thereof” (priority 2003, dated 2006).

Tests used:
Type in all cases: cell-based, Pseudomonas putida
[1] = test system: 4HBA-tolerant Str, Gen and Rif mutants of P. putida KH146-2; conditions: Str mutants and Rif mutants tested; in words
Protocol: (§1) Pseudomonas putida KH146-2 was originally isolated from soil for the capability of growing in the presence of 4-hydroxybenzoate (Chen et al., ((1998) Res Communs Biochem and Cell & Mol Biol 2: 253–274)). HBM medium consists of 50 mM sodium potassium phosphate buffer (pH6.8), 0.1% (NH4)2SO4 and Hutner's base. Hutner's base cotained (per liter) nitrilotriacetic acid, 200 mg; CaCl2.2H2O, 67 mg; (NH4)6Mo7O24.4H2O, 185 μg; MgSO4, 289 mg; EDTA, 2.5 mg; ZnSO4.7H2O, 11 mg; FeSO4.7H2O, 7 mg; MnSO4.H2O, 1.5 mg; CuSO4.5H2O, 390 μg; Co(NO3)2.6H2O, 250 μg, and Na2B4O7.10H2O, 180 μg. LB medium contains 1% tryptone, 0.5% yeast extract, and 1% NaCl (adjusted pH 6.8). LBH medium contains 1% tryptone and 0.5% yeast extract in HBM medium. The bacteria were grown at 30° C. in a shaker at 200 rpm. For tolerance tests, HBM or LBH agar plates containing serially increasing concentrations of an organic chemical were employed. Routinely, 20 to 40 bacterial strains were spot-transplanted with the aid of tooth pick on an agar plate, followed by incubation at 30° C. for 3 days.
Using several strains randomly chosen as representatives of 4HBA-tolerant mutants, we examined the tolerance level to various organic compounds. […] Tolerance levels to other organic compounds were also examined.

KH146-2 = assay: Organic solvent tolerance, growth in saturated LBH medium
Str and Rif mutants = assay: as above
[2] = test system: P. putida wild-type KH146-2; conditions: LBH medium, 30° C., 3 days
Protocol: as §1

[3] = test system: P. putida strain no. 14 (Rif mutant); assay: Tolerance test (MIC) on agar plates; conditions: LBH medium
Protocol: as §1

[4] = test system: P. putida strain no. 12 (Gen mutant); assay: Tolerance test (MIC) on agar plates; conditions: LBH medium
Protocol: as §1

[5] = test system: P. putida strain no. 3 (Str mutant); assay: Tolerance test (MIC) on agar plates; conditions: LBH medium
Protocol: as §1

[6] = test system: P. putida strain no. 17 (Rif mutant); assay: Tolerance test (MIC) on agar plates; conditions: LBH medium
Protocol: as §1

[7] = test system: P. putida strain no. 9 (Str mutant); assay: Tolerance test (MIC) on agar plates; conditions: LBH medium
Protocol: as §1

[8] = test system: P. putida strain no. 15 (Rif mutant); assay: Tolerance test (MIC) on agar plates; conditions: LBH medium
Protocol: as §1

[9] = LBH medium containing saturated concentrations of m-xylene
[10] = 3% MeOH-LBH medium saturated with toluene

With `O=C(O)c1cc(Cl)ccc1O` [5-chlorosalicylate] the “Tolerance of mutants relative to wild-type” value [1] was “increased tolerance”.
For `O=C(O)c1ccccc1I` [2-iodobenzoate], the “Tolerance of mutants relative to wild-type” value [1] was “increased tolerance”.
With `Cc1cccc(C)c1` [m-xylene] the growth (KH146-2; [9]) was “inhibited almost completely” and the growth (Str and Rif mutants; [9]) was “grew”.
In the case of norvalerate, the “Tolerance of mutants relative to wild-type” value [1] is reported as “increased tolerance”.
`O=C(O)c1cccc(O)c1` [3HBA, 3-hydroxybenzoate] was tested, and the “Tolerance (MIC)” value [2] was 1.4 ± 0.1%, the “Tolerance of mutants relative to wild-type” value [1] was “modest increment of tolerance” and the “Tolerance (MIC)” value [3] was 1.9 ± 0.1%. The “Tolerance (MIC)” value [4] was 1.9 ± 0.2%, the “Tolerance (MIC)” value [5] was 1.8 ± 0.2% and the “Tolerance (MIC)” value [6] was 1.8 ± 0.3%. The “Tolerance (MIC)” value [7] was 1.8 ± 0.1% and the “Tolerance (MIC)” value [8] was 1.9 ± 0.2%.
With `O=C(O)c1ccc(Cl)cc1O` [4-chlorosalicylate] the “Tolerance of mutants relative to wild-type” value [1] was “increased tolerance”.
In the case of `Cc1ccccc1` [toluene], the growth (KH146-2; [10]) is reported as “somewhat retarded” and the growth (Str and Rif mutants; [10]) is reported as “grew normally”.
`CC(C)CC(=O)O` [isovalerate] was tested, and the “Tolerance of mutants relative to wild-type” value [1] was “increased tolerance”.
For `O=C(O)c1ccccc1` [BA, benzoic acid], the “Tolerance (MIC)” value [2] was 0.8 ± 0.2%, the “Tolerance of mutants relative to wild-type” value [1] was “slight or no increase of tolerance” and the “Tolerance (MIC)” value [3] was 1.1 ± 0.1%. For the same compound, the “Tolerance (MIC)” value [4] was 1.0 ± 0.1%, the “Tolerance (MIC)” value [5] was 1.0 ± 0.1% and the “Tolerance (MIC)” value [6] was 1.1 ± 0.1%. For the same compound, the “Tolerance (MIC)” value [7] was 0.9 ± 0.1% and the “Tolerance (MIC)” value [8] was 1.0 ± 0.1%.
`O=C(O)c1ccc(F)cc1` [4-fluorobenzoate] was tested, and the “Tolerance of mutants relative to wild-type” value [1] was “increased tolerance”.
With `CC(C)C(=O)O` [isobutyrate] the “Tolerance of mutants relative to wild-type” value [1] was “increased tolerance”.
`O=C(O)c1cccc(Cl)c1` [3CB, 3-chlorobenzoate] was tested, and the “Tolerance (MIC)” value [2] was 0.9 ± 0.1%, the “Tolerance of mutants relative to wild-type” value [1] was “slight or no increase of tolerance” and the “Tolerance (MIC)” value [3] was 1.1 ± 0.2%. For the same compound, the “Tolerance (MIC)” value [4] was 1.1 ± 0.2%, the “Tolerance (MIC)” value [5] was 1.1 ± 0.2% and the “Tolerance (MIC)” value [6] was 1.2 ± 0.1%. The “Tolerance (MIC)” value [7] was 1.0 ± 0.2% and the “Tolerance (MIC)” value [8] was 1.3 ± 0.2%.
For `O=C(O)c1ccccc1Cl` [2CB, 2-chlorobenzoate], the “Tolerance (MIC)” value [2] was 1.5 ± 0.2%, the “Tolerance of mutants relative to wild-type” value [1] was “modest increment of tolerance” and the “Tolerance (MIC)” value [3] was 1.9 ± 0.2%. For the same compound, the “Tolerance (MIC)” value [4] was 1.9 ± 0.3%, the “Tolerance (MIC)” value [5] was 1.9 ± 0.2% and the “Tolerance (MIC)” value [6] was 2.1 ± 0.2%. The “Tolerance (MIC)” value [7] was 1.7 ± 0.2% and the “Tolerance (MIC)” value [8] was 2.0 ± 0.2%.
For isonicotinate, the “Tolerance of mutants relative to wild-type” value [1] was “increased tolerance”.
`O=C(O)c1cccc(I)c1` [3-iodobenzoate] was tested, and the “Tolerance of mutants relative to wild-type” value [1] was “increased tolerance”.
With `O=C(O)c1ccccc1O` [2HBA, 2-hydroxybenzoate] the “Tolerance (MIC)” value [2] was 0.8 ± 0.1%, the “Tolerance of mutants relative to wild-type” value [1] was “slight or no increase of tolerance” and the “Tolerance (MIC)” value [3] was 0.8 ± 0.1%. The “Tolerance (MIC)” value [4] was 0.8 ± 0.1%, the “Tolerance (MIC)” value [5] was 0.9 ± 0.1% and the “Tolerance (MIC)” value [6] was 0.7 ± 0.1%. The “Tolerance (MIC)” value [7] was 0.8 ± 0.1% and the “Tolerance (MIC)” value [8] was 0.8 ± 0.1%.
For `O=C(O)c1ccc(O)c(Br)c1` [3-bromo-4-hydroxybenzoate], the “Tolerance of mutants relative to wild-type” value [1] was “increased tolerance”.
